Measurements taken from patent US20110293558A1, “MATERIAL PROPERTIES OF T CELLS AND RELATED METHODS AND COMPOSITIONS” (Massachusetts Institute of Technology, priority 2010, published 2011).
Entries after “also recorded” stand apart in the source; their conditions may differ.

Assays:
RBCs = experiment: Deformability cytometer: RBC velocity/passage after glutaraldehyde treatment; assay type: cell-based, human
Excerpt: The device design includes periodically spaced, triangle-shaped pillars and the gaps between these pillars result in well-controlled constrictions for RBCs to pass. The height of the device was set to 4.2 μm. RBCs were forced to assume a flat orientation before entering each constriction. This height, in addition to filters at the reservoirs, prevented white blood cells from entering the device, and permitted diluted whole blood to be used directly.
A mold of the device was made on a silicon wafer using photolithography and reactive-ion etching techniques. A 5× reduction step-and-repeat projection stepper (Nikon NSR2005i9, Nikon Precision) was used for patterning. The spacing between pillars was 3 μm, and the depth of the device was 4.2 μm. The device was made using standard PDMS casting protocols and bonded to a glass slide.
PBS was mixed with 0.2% w/v Pluronic F-108 (BASF, Mount Olive, N.J.) and 1% w/v Bovine Serum Albumin (BSA) (Sigma-Aldrich, St. Louis, Mo.) as a stock solution to prevent RBC adhesion to the device walls. For the fluorescent bead experiments, 200 nm FluoSpheres europium luminescent microspheres (Molecular Probes, Eugene, Oreg.) diluted to a final concentration of 1.25×10^−5 percent solids were used.
In experiments involving blood, 1 μl of whole blood (˜50% hematocrit) was diluted in 100 μl of the PBS-pluronic-BSA solution for all of the experiments. […]

[1] = system: RBCs re-suspended in saline / Ringer solution; settings: cited from earlier work
parasitemia = settings: patients treated with artemisinin and its derivatives vs other antimalarial drugs; cited from earlier work
[2] = system: co-cultured uninfected RBCs (uRBCs); experiment: Microfluidic deformability cytometer: cell mobility after artesunate treatment; assay type: cell-based, human; settings: 0.01, 0.05 or 0.1 μg/ml artesunate; 2, 4 and 6 hours after treatment
Excerpt: (§1) The device used in this example comprises a series of equally spaced triangular pillar arrays with pore sizes ranging from 2.5 to 4 um (FIG. 55A illustrates the case of 3 um pore size). Compared to the diameter of an average RBC (˜7.5 um), the smaller pore sizes are designed to impose similar mechanical constraints on the cells as if they are passing through blood capillaries and splenic meshwork. Driven by constant pressure gradient in the sub-Pascal-per-micrometer range, RBCs are able to deform substantially at each constriction and traverse along the channel. The dynamic deformability of RBCs is then characterized by their mobility: the ability to deform repeatedly in order to pass through multiple constrictions in series.
(§2) FIG. 55A depicts an experimental schematic of the microfluidic system. A heating chamber (Olympus) was mounted to the inverted microscope stage. Four heaters for the inner water bath, microscope stage, chamber top, and lens were designed to accurately control the ambient temperature inside the chamber. The PDMS-glass bonded device consists of the inlet and outlet reservoirs and main channels with triangular pillar arrays. It was placed inside the heating chamber with only the inlet reservoir connecting to an external syringe via a 20 cm-tubing. The reservoirs were 500×500 μm^2 squares with 20 μm-interspacing cylindrical pillar arrays; these pillar arrays could pre-filter white blood cells from whole blood, allowing only RBCs to pass through the main channels. Each of the parallel channels was 10 pillars wide and 200 pillars long. Along the flow direction, the inter-pillar spacing was 10 μm. This spacing allows deformed cells to recover and ready for subsequent deformations. Perpendicular to the flow direction, the pore size varied from 2.5 to 4 μm for different channels. Cells experience different levels of deformation when passing through these pores.
(§3) FIG. 55B presents microscopic screenshots illustrating both iRBCs and co-cultured uRBCs moving in the microchannel at different temperature conditions. The uninfected cells appear as dark shadows indicated by blue arrows, and the infected cells with thiazole orange (TO) staining appear as bright dots indicated by white arrows. The mobility of individual cells can then be derived by recording the time period for each cell passing through 10 constrictions in series (i.e. equivalent to 200 μm distance travelled). In this example, cell mobility is used to characterize the dynamic deformability of individual RBCs.
(§4) The deformability of both iRBCs and uRBCs were measured at 2, 4 and 6 hours after artesunate drug treatment (FIG. 60). A synchronized culture of rings with ˜15% parasitemia was resuspended at 0.1% hematocrit in malaria culture medium containing 0.01, 0.05 or 0.1 μg/ml of artesunate.
(§5) Layout program CleWin3.0 was used to design the microfluidic device, which consists of a 500×500 μm^2 inlet reservoir, a 500×500 μm^2 outlet reservoir, and parallel capillary channels with triangular pillar arrays (FIG. 55A). Three different pore-size of 2.5, 3.0 and 4.0 μm were designed for the capillary channels to test optimum deformation condition for the experiment. A silicon mold of the device was made using standard silicon processing techniques. The photolithography step was done using a 5× reduction step-and-repeat projection stepper (Nikon NSR2005i9, Nikon Prevision) and reactive-ion etching (RIE) techniques were used to give the mold a final depth of 4.2 μm. Final device was then casted from the silicon mold using polydimethylsiloxane (PDMS) and was sealed by a glass slide using oxygen plasma.
(§6) P. falciparum 3D7A parasites (from Malaria Research and Reference Reagent Source, American Type Culture Collection) were cultured in leukocyte-free human RBCs (Research Blood Components, Brighton Mass.) in RPMI 1640 complete medium as described (Trager and Jensen J. parasitol. 2005). […]

[3] = system: P. falciparum-infected RBCs (iRBCs); experiment: as above; assay type: cell-based, human; settings: for iRBC deformability (cell mobility) after artesunate drug treatment: 0.01, 0.05 or 0.1 μg/ml artesunate, 2, 4 and 6 hours after treatment, synchronized rings ~15% parasitemia; for separation resolution between iRBCs and uRBCs: after artesunate drug treatment vs untreated
Excerpt: as §1, §2, §3, §4, §5, §6

## O=CCCCC=O [glutaraldehyde]
RBCs; 30 minutes in PBS, approx. 0.61 Pa/μm, FIG. 5B
  RBC stiffness / velocity with increasing glutaraldehyde concentration: progressively stiffer with decreasing velocity
RBCs; glutaraldehyde concentrations greater than 0.003%
  RBC passage into the channel: most RBCs were held up at the entrance to the channel

## CC=O [acetaldehyde]
[1]; prolonged exposure of clean RBCs to acetaldehyde, re-suspension in Ringer solution
  RBC hardening / suspension viscosity: constant suspension viscosity over the full range of hematocrit and shear rates

## C[C@@H]1CC[C@H]2[C@@H](C)C(=O)O[C@@H]3O[C@@]4(C)CC[C@@H]1[C@]32OO4 [artemisinin]
parasitemia
  decline in parasitemia: more rapid decline in parasitemia

## C[C@H]1[C@H](OC(=O)CCC(=O)O)O[C@@H]2O[C@@]3(C)CC[C@H]4[C@H](C)CC[C@@H]1[C@@]24OO3 [artesunate]
[2]
  uRBC deformability (cell mobility) after artesunate drug treatment: stiffening effect; also recorded: stiffened considerably
[3]
  iRBC deformability (cell mobility) after artesunate drug treatment: stiffening effect; also recorded: drop in iRBC deformability is more precipitous than in uRBC
  separation resolution between iRBCs and uRBCs: almost doubled
[3]; listed as Artesunate
  iRBC deformability (cell mobility) after artesunate drug treatment: significant decrease in cell mobility
  separation resolution between iRBCs and uRBCs: doubled
[3]; 2 and 4 hours after artesunate treatment, iRBCs and uRBCs both measured
  mobility decrease: smaller and less pronounced mobility decrease
[3]; after 4 hour drug treatment, dosage range 0.01 to 0.1 μg/ml
  dose dependence of mobility changes: no statistically significant dose dependence

## Fibrinogen
[1]; fibrinogen added progressively to washed RBCs in pure saline
  suspension viscosity: increase in viscosity with increasing fibrinogen concentration at low deformation rates
